In patent publication US10798941B2, “Microbiocidal oxadiazole derivatives” (SYNGENTA PARTICIPATIONS AG, priority 2016, dated 2020):

Assays:
[1] = tested on: Puccinia recondita f. Sp. Tritici; assay: Puccinia recondita f. sp. tritici / wheat / leaf disc curative (brown rust); type: in vivo; settings: foliar, 144 h, 200 ppm in the applied formulation, wheat leaf segments cv. Kanzler, applied 1 day after inoculation, assessed 6 to 8 days after application, vs untreated, read-out: disease control
Protocol: (§1) Leaf disks or leaf segments of various plant species are cut from plants grown in a greenhouse. The cut leaf disks or segments are placed in multiwell plates (24-well format) onto water agar. The leaf disks are sprayed with a test solution before (preventative) or after (curative) inoculation. Compounds to be tested are prepared as DMSO solutions (max. 10 mg/ml) which are diluted to the appropriate concentration with 0.025% Tween20 just before spraying. The inoculated leaf disks or segments are incubated under defined conditions (temperature, relative humidity, light, etc.) according to the respective test system. A single evaluation of disease level is carried out 3 to 14 days after inoculation, depending on the pathosystem. Percent disease control relative to the untreated check leaf disks or segments is then calculated.
Wheat leaf segments cv. Kanzler are placed on agar in multiwell plates (24-well format). The leaf segments are then inoculated with a spore suspension of the fungus. Plates were stored in darkness at 19° C. and 75% relative humidity. The formulated test compound diluted in water was applied 1 day after inoculation. The leaf segments were incubated at 19° C. and 75% relative humidity under a light regime of 12 hours light/12 hours darkness in a climate cabinet and the activity of a compound was assessed as percent disease control compared to untreated when an appropriate level of disease damage appears in untreated check leaf segments (6 to 8 days after application).
(§2) The following compounds at 200 ppm in the applied formulation give at least 80% disease control in this test when compared to untreated control leaf disks under the same conditions, which show extensive disease development.

[2] = tested on: Puccinia recondita f. Sp. Tritici; assay: Puccinia recondita f. sp. tritici / wheat / leaf disc preventative (brown rust); type: in vivo; settings: foliar, 168 h, 200 ppm in the applied formulation, wheat leaf segments cv. Kanzler, preventative, inoculated 1 day after application, assessed 7 to 9 days after application, vs untreated, read-out: disease control
Protocol: as §1
Wheat leaf segments cv. Kanzler were placed on agar in multiwell plates (24-well format) and sprayed with the formulated test compound diluted in water. The leaf disks were inoculated with a spore suspension of the fungus 1 day after application. The inoculated leaf segments were incubated at 19° C. and 75% relative humidity (rh) under a light regime of 12 hours light/12 hours darkness in a climate cabinet and the activity of a compound was assessed as percent disease control compared to untreated when an appropriate level of disease damage appears in untreated check leaf segments (7 to 9 days after application).
as §2

[3] = tested on: Glomerella Lagenarium (Colletotrichum Lagenarium); assay: Glomerella lagenarium (Colletotrichum lagenarium) liquid culture / cucumber / preventative (anthracnose); type: cell-based; settings: Colletotrichum orbiculare; 20 ppm in the applied formulation; liquid culture in PDB, 24° C., inhibition of growth measured photometrically 3 to 4 days after application, vs untreated; read-out: disease control
Protocol: Mycelia fragments or conidia suspensions of a fungus prepared either freshly from liquid cultures of the fungus or from cryogenic storage, are directly mixed into nutrient broth. DMSO solutions of the test compound (max. 10 mg/ml) are diluted with 0.025% Tween20 by a factor of 50 and 10 μl of this solution is pipetted into a microtiter plate (96-well format). The nutrient broth containing the fungal spores/mycelia fragments is then added to give an end concentration of the tested compound. The test plates are incubated in the dark at 24° C. and 96% relative humidity. The inhibition of fungal growth is determined photometrically after 2 to 7 days, depending on the pathosystem, and percent antifungal activity relative to the untreated check is calculated.
Conidia of the fungus from cryogenic storage are directly mixed into nutrient broth (PDB—potato dextrose broth). After placing a (DMSO) solution of test compound into a microtiter plate (96-well format), the nutrient broth containing the fungal spores is added.
The following compounds at 20 ppm in the applied formulation give at least 80% disease control in this test when compared to untreated control under the same conditions, which show extensive disease development.

SMILES	pest or weed control at 200 ppm [1] [%]	pest or weed control at 200 ppm [2] [%]	inhibition of growth at 20 ppm [3] [%]
CON=C1CCN(Cc2ccc(-c3noc(C(F)(F)F)n3)cc2)CC1 [Compound 1.293, N-methoxy-1-[[4-[5-(trifluoromethyl)-1,2,4-oxadiazol-3-yl]phenyl]methyl]piperidin-4-imine]	≥ 80	–	–
N#Cc1ncn(Cc2ccc(-c3noc(C(F)(F)F)n3)cc2)c1C#N [Compound 1.45, 1-[[4-[5-(trifluoromethyl)-1,2,4-oxadiazol-3-yl]phenyl]methyl]imidazole-4,5-dicarbonitrile]	≥ 80	≥ 80	≥ 80
N#Cc1cnn(Cc2ccc(-c3noc(C(F)(F)F)n3)cc2)c1 [Compound 1.76, 1-[[4-[5-(trifluoromethyl)-1,2,4-oxadiazol-3-yl]phenyl]methyl]pyrazole-4-carbonitrile]	≥ 80	≥ 80	≥ 80
FC(F)(F)c1nc(-c2ccc(Cn3cnc(Cl)c3Cl)cc2)no1 [Compound 1.46, 3-[4-[(4,5-dichloroimidazol-1-yl)methyl]phenyl]-5-(trifluoromethyl)-1,2,4-oxadiazole]	≥ 80	≥ 80	≥ 80
COc1ccc(Cc2ccc(-c3noc(C(F)(F)F)n3)cc2)cn1 [Compound 1.254, 3-[4-[(6-methoxy-3-pyridyl)methyl]phenyl]-5-(trifluoromethyl)-1,2,4-oxadiazole]	≥ 80	≥ 80	≥ 80
FC(F)(F)c1nc(-c2ccc(Cn3cnc(-c4ccccc4)c3)cc2)no1 [Compound 1.82, 3-[4-[(4-phenylimidazol-1-yl)methyl]phenyl]-5-(trifluoromethyl)-1,2,4-oxadiazole]	≥ 80	≥ 80	≥ 80
N#Cc1ncn(Cc2ccc(-c3noc(C(F)(F)F)n3)cc2F)c1C#N [Compound 1.119, 1-[[2-fluoro-4-[5-(trifluoromethyl)-1,2,4-oxadiazol-3-yl]phenyl]methyl]imidazole-4,5-dicarbonitrile]	≥ 80	≥ 80	≥ 80
CON=C1CCN(Cc2ccc(-c3noc(C(F)(F)F)n3)cc2)C1 [Compound 1.292, N-methoxy-1-[[4-[5-(trifluoromethyl)-1,2,4-oxadiazol-3-yl]phenyl]methyl]pyrrolidin-3-imine]	≥ 80	≥ 80	≥ 80
Cc1nccn1Cc1ccc(-c2noc(C(F)(F)F)n2)cc1F [Compound 1.123, 3-[3-fluoro-4-[(2-methylimidazol-1-yl)methyl]phenyl]-5-(trifluoromethyl)-1,2,4-oxadiazole]	≥ 80	≥ 80	–
Cc1cn(Cc2ccc(-c3noc(C(F)(F)F)n3)cn2)c(C)n1 [Compound 1.134, 3-[6-[(2,4-dimethylimidazol-1-yl)methyl]-3-pyridyl]-5-(trifluoromethyl)-1,2,4-oxadiazole]	≥ 80	–	–
CNC(=O)c1cn(Cc2ccc(-c3noc(C(F)(F)F)n3)cc2)nn1 [Compound 1.272, N-methyl-1-[[4-[5-(trifluoromethyl)-1,2,4-oxadiazol-3-yl]phenyl]methyl]triazole-4-carboxamide]	≥ 80	–	–
N#Cc1ncnn1Cc1ccc(-c2noc(C(F)(F)F)n2)nc1 [Compound 1.258, 2-[[6-[5-(trifluoromethyl)-1,2,4-oxadiazol-3-yl]-3-pyridyl]methyl]-1,2,4-triazole-3-carbonitrile]	≥ 80	–	≥ 80
Cc1cn(Cc2ccc(-c3noc(C(F)(F)F)n3)cc2F)c(C)n1 [Compound 1.145, 3-[4-[(2,4-dimethylimidazol-1-yl)methyl]-3-fluoro-phenyl]-5-(trifluoromethyl)-1,2,4-oxadiazole]	≥ 80	≥ 80	–
FC(F)(F)c1nc(-c2ccc(Cn3ncnc3C(F)(F)F)cc2)no1 [Compound 1.38, 5-(trifluoromethyl)-3-[4-[[5-(trifluoromethyl)-1,2,4-triazol-1-yl]methyl]phenyl]-1,2,4-oxadiazole]	≥ 80	–	≥ 80
FC(F)(F)c1nc(-c2ccc(Cn3ccnc3)nc2)no1 [Compound 1.141, 3-[6-(imidazol-1-ylmethyl)-3-pyridyl]-5-(trifluoromethyl)-1,2,4-oxadiazole]	≥ 80	≥ 80	–
Fc1ccc2ccn(Cc3ccc(-c4noc(C(F)(F)F)n4)cc3)c2c1 [Compound 1.54, 3-[4-[(6-fluoroindol-1-yl)methyl]phenyl]-5-(trifluoromethyl)-1,2,4-oxadiazole]	≥ 80	–	≥ 80
Cc1cn(Cc2ccc(-c3noc(C(F)(F)F)n3)cc2)c(C)n1 [Compound 1.78, 3-[4-[(2,4-dimethylimidazol-1-yl)methyl]phenyl]-5-(trifluoromethyl)-1,2,4-oxadiazole]	≥ 80	–	–
O=Cc1nccn1Cc1ccc(-c2noc(C(F)(F)F)n2)cc1 [Compound 1.71, 1-[[4-[5-(trifluoromethyl)-1,2,4-oxadiazol-3-yl]phenyl]methyl]imidazole-2-carbaldehyde]	≥ 80	–	–
FC(F)(F)c1nc(-c2ccc(Cn3c(-c4ccncc4)nc4ccccc43)cc2)no1 [Compound 1.73, 3-[4-[[2-(4-pyridyl)benzimidazol-1-yl]methyl]phenyl]-5-(trifluoromethyl)-1,2,4-oxadiazole]	–	≥ 80	≥ 80
O=C(NCC1CC1)c1cnn(Cc2ccc(-c3noc(C(F)(F)F)n3)cc2)c1 [Compound 1.249, N-(cyclopropylmethyl)-1-[[4-[5-(trifluoromethyl)-1,2,4-oxadiazol-3-yl]phenyl]methyl]pyrazole-4-carboxamide]	–	≥ 80	≥ 80
FC(F)(F)c1nc(-c2ccc(Cn3ccnc3-c3ccccc3)cc2)no1 [Compound 1.47, 3-[4-[(2-phenylimidazol-1-yl)methyl]phenyl]-5-(trifluoromethyl)-1,2,4-oxadiazole]	–	≥ 80	≥ 80
FC(F)(F)c1nc(-c2ccc(Cn3cncn3)nc2)no1 [Compound 1.143, 3-[6-(1,2,4-triazol-1-ylmethyl)-3-pyridyl]-5-(trifluoromethyl)-1,2,4-oxadiazole]	≥ 80	–	≥ 80
FC(F)(F)c1nc(-c2ccc(Cn3cc(Br)cn3)cc2)no1 [Compound 1.77, 3-[4-[(4-bromopyrazol-1-yl)methyl]phenyl]-5-(trifluoromethyl)-1,2,4-oxadiazole]	≥ 80	–	≥ 80
Cc1cn(Cc2ccc(-c3noc(C(F)(F)F)n3)cc2Cl)cn1 [Compound 1.109, 3-[3-chloro-4-[(4-methylimidazol-1-yl)methyl]phenyl]-5-(trifluoromethyl)-1,2,4-oxadiazole]	–	≥ 80	≥ 80
Fc1cc(-c2noc(C(F)(F)F)n2)ccc1Cn1cnc2ccccc21 [Compound 1.126, 3-[4-(benzimidazol-1-ylmethyl)-3-fluoro-phenyl]-5-(trifluoromethyl)-1,2,4-oxadiazole]	–	≥ 80	≥ 80
